Data as given in patent US20060040951A1, “Use of 5-ht2 receptor antagonists for the treatment of sleep disorders” (Merck Patent GmbH, priority 2002, published 2006).

Assays:
[1] = test system: rats; experiment: Example B: EEG sleep-stage recording of non-anaesthetised rats over 12 hours, crossover study versus vehicle; format: in vivo, rat
Protocol: In order to measure the brain waves, EEG electrodes are implanted into the brain of anaesthetised rats. After a recovery time of 15 days, these electrodes are connected to an amplifier via a flexible cable, and the brain waves of the non-anaesthetised animals are recorded over 12 hours. (3-Cyano-1H-indol-7-yl)-[4-(4-fluorophenethyl)piperazin-1-yl]methanone is dissolved in advance in a concentration of 0.1 ml/100 g of peanut oil. This solution (compound) or, for comparison, merely the solvent (vehicle) is administered orally to the test animals in a dose of 3 mg/kg. From the filtered and amplified brain-wave signals, the sleep stages are evaluated via Fourier spectral analysis including certain criteria. The REM and non-REM sleep stages can be identified with reference to the patterns. The experimental results are shown in Tables 1 (effect of the substance) and 2 (significances of the measurement values). It becomes clear that (3-cyano-1H-indol-7-yl)-[4-(4-fluorophenethyl)piperazin-1-yl]methanone results in a significant extension both of non-REM sleep and of REM sleep and that these extensions are significant.
This experiment is a crossover study. This means that one and the same animal receives either first solvent (vehicle) and then, after a waiting time of one week, the test substance (3-cyano-1H-indol-7-yl)-[4-(4-fluorophenethyl)piperazin-1-yl]methanone (compound), or the administration is carried out in the reverse sequence.
The measured values after vehicle or compound administration are compared with one another using the statistical method of analysis of variance (ANOVA). The p value is a statistical measure of the probability that a difference occurs by chance between the measurement values or is caused by the substance administration. According to international standards, a p value of below 0.05 is regarded as “significant”.
It is clear from FIG. 1 that in particular stages 3 and 4, which are regarded as slow-wave sleep, are extended in non-REM sleep. […] The term delta power or delta waves denotes the “slow” waves recorded in the EEG which are characteristic of slow-wave sleep stages. For each rat, the hour average after solvent (vehicle) treatment was firstly determined and subtracted from the value after substance treatment.

[2] = test system: rats; experiment: Brain-wave (EEG) recording of rats over 6 hours during the dark phase; format: in vivo, rat
[3] = cited from earlier work
[4] = rats, 3 mg/kg orally in peanut oil, 12 h recording, average ± standard error
[5] = rats, 3 mg/kg orally, 12 h recording, average ± standard error
[6] = 3 mg/kg per os, 6 h recording during dark phase

With `N#Cc1c[nH]c2c(C(=O)N3CCN(CCc4ccc(F)cc4)CC3)cccc12` [(3-cyano-1H-indol-7-yl)-[4-(4-fluorophenethyl)piperazin-1-yl]methanone] the “relative delta power in the rat EEG, difference from the control level” value ([1]; FIG. 1, as a function of the time of day) was “significantly increased overall”, the “NREM sleep Total Time” value [1, 4] was 232.8 ± 13.1 min and the “REM sleep Total Time” value [1, 4] was 45.3 ± 3.8 min. For the same compound, the “Wakefulness Total Time” value [1, 4] was 440.6 ± 15.1 min, the Inter-REM interval [1, 5] was 28.8 ± 3.0 min and the “NREM sleep Episode Duration” value [1, 5] was 184.8 ± 9.5 s. The “REM Latency” value [1, 5] was 5.2 ± 0.3 min, the “REM sleep Episode Duration” value [1, 5] was 93.1 ± 6.6 s and the “Wakefulness Episode Duration” value [1, 5] was 422.5 ± 29.3 s. For the same compound, the “average increase in non-REM sleep” value [2, 6] was “about 4 min/h”, the “maximum increase in non-REM sleep” value [2, 6] was “about 5 minutes per hour” and the “extension of REM sleep, average” value ([2]; 6 h dark phase) was 0.8 min/h. For the same compound, the “extension of REM sleep, maximum” value ([2]; 6 h dark phase) was 2 min/h and the “what the change in REM sleep results from” value ([2]; 6 h dark phase) was “increase in the number of REM episodes”.
For `CCc1nn(CCCN2CCN(c3cccc(Cl)c3)CC2)c(=O)n1CCOc1ccccc1` [nefazodone], the “effect on REM sleep” value ([3]; literature report) is listed as “extend REM sleep” and the “effect on slow-wave phases 3 and 4 of non-REM sleep” value ([3]; literature report) is listed as “remain unchanged”.
For `O=C1CCC(N2C(=O)c3ccccc3C2=O)C(=O)N1` (centres unmarked) [thalidomide], the “effect on both sleep phases” value ([3]; known sleeping drug) is given as “extends both sleep phases”.
With `Cc1nnc2n1-c1ccc(Cl)cc1C(c1ccccc1Cl)=NC2` [triazolam, reference compound] the “what the change in REM sleep results from” value ([2]; 6 h dark phase) was “reduction in the duration of the individual REM phases”, the “extension of non-REM sleep” value ([2]; dose 0.1 mg/kg, 6 h dark phase) was 2 min/h and the “extension of non-REM sleep (maximum effect)” value ([2]; dose 0.4 mg/kg, 6 h dark phase) was 6.5 min/h.
